According to ChEMBL document CHEMBL3988442, “University of Dundee, Small-Polar-MMV Screening Library” (2021):
Values joined by “and” are separate entries in the source; they are usually repeats but may differ in a detail not shown here. Equal values may be shown once.

Assays:
Histidine--tRNA ligase = target: T1, Histidine--tRNA ligase (Leishmania infantum, UniProt A4I591); experiment: Leishmania infantum Histidine tRNA synthetase (LdHisRS); type: functional
T1 sequence (A4I591 whole entry): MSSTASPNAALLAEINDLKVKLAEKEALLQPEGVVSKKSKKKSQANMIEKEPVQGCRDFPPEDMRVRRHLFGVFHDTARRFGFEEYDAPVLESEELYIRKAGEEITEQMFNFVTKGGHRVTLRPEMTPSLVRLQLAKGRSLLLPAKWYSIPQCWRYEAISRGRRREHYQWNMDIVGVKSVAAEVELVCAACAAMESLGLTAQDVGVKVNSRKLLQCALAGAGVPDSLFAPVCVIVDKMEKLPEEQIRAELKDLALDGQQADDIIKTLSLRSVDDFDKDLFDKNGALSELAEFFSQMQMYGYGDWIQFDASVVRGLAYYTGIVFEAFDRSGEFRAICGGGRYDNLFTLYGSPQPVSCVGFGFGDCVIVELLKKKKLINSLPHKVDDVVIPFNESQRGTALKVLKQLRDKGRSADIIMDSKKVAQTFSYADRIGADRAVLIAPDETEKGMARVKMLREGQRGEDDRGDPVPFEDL

Tryptophan--tRNA ligase = Tryptophan--tRNA ligase (Mycobacterium tuberculosis (strain ATCC 25618 / H37Rv), UniProt P9WFT3); experiment: Biochemical assay for Mt-TrpRS; type: functional
[1] = In vitro enzyme assay to detect hydrolysis of chlorophenol red-beta-D-[…] directly proportional to the number of Toxoplasma stably expressing beta-galactosidase; type: functional, organism-based, Toxoplasma gondii; settings: Toxoplasma gondii
Schistosoma mansoni = experiment: High throughput screening of compounds against Schistosoma mansoni motility; type: functional; design: dose or concentration left out as unconfirmed

Chain of Tryptophan--tRNA ligase (P9WFT3 whole entry): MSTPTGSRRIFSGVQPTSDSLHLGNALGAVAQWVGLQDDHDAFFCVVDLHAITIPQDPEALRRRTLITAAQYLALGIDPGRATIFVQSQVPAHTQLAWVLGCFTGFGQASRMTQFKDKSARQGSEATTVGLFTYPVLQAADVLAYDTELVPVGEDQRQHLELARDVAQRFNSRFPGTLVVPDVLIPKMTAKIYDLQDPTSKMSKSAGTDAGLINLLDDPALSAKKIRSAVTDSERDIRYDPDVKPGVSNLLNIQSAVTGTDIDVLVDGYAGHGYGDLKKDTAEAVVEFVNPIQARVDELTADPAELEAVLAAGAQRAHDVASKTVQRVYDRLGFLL

| SMILES | IC50 (Histidine--tRNA ligase) | IC50 (Tryptophan--tRNA ligase) [µM] | also measured |
| --- | --- | --- | --- |
| CN1CCCN(C(=O)c2nc3c(s2)CCCN3CC2CC2)CC1 | 77.9 µM and 55.6 µM |  |  |
| CC(=O)N1CCN(C(=O)CNc2ccc3ncsc3c2)CC1 | 6.78 µM and 9.49 µM |  |  |
| COc1ccc(-c2noc(CN3CCc4cncnc4C3)n2)cc1 | > 100 µM |  |  |
| COc1ccc(-c2nc(CN3CCc4c(ncn4C)C3)cs2)cc1 | 69.8 µM and 87.5 µM |  |  |
| O=C1CCC(C(=O)Nc2ccc(=O)n(Cc3ccc(Cl)c(Cl)c3)c2)N1 (configuration not stated) | 10.1 µM and 9.92 µM |  |  |
| CCCn1nc2c(cc1=O)CN(Cc1nc(CCOC)no1)CC2 | 57.7 µM and 67.2 µM |  |  |
| COCCNc1nnc(-c2ccc(C)nc2)s1 |  | > 195 | IC50 [1]: > 50.1 µM |
| CC(C(=O)NCc1ccc(N2CCNC(=O)C2)cc1)n1cncn1 (configuration not stated) | 60.1 µM and 77.1 µM |  |  |
| CN(C)CCN1CCO[C@@H]2CCN(C(=O)c3cccn3C)CC[C@H]21 | > 100 µM |  |  |
| Cc1nnc(N2CCc3cnc(C(C)C)nc3C2)c(C#N)c1C | > 100 µM |  |  |
| CC(Cn1cccn1)NC(=O)Nc1ccc(N(C)C)nc1 (configuration not stated) |  | > 195 | Percent Effect (Schistosoma mansoni): 0.4135% |
| COCCN1CCCn2cnc(CNC3CCCC3)c2C1 | 9.13 µM and 12.8 µM |  |  |
| Cc1noc(C)c1CNc1ccc2nc(C3CC3)sc2c1 | > 100 µM |  |  |
| Cc1nnc(NCC(c2ccco2)N(C)C)c(C#N)c1C (configuration not stated) | 24.8 µM and 24.1 µM |  |  |
| O=C(Nc1ccc(=O)n(Cc2ccccc2Cl)c1)C1CC1 | 6.94 µM and 5.93 µM |  |  |
| CN(CCOc1ccccc1)C(=O)Nc1cccn(C)c1=O | 15 µM and 15.4 µM |  |  |
| CN(Cc1cnn(C)c1)C(=O)NC1CCS(=O)(=O)C1 (configuration not stated) |  | > 195 | Percent Effect (Schistosoma mansoni): -4.908% |
| COc1ccc2c(c1)c(C(=O)Nc1nnn[nH]1)cn2C(C)C | > 100 µM |  |  |
| Cc1ccn(C)c(=O)c1NC(=O)N(C)Cc1cccc(OC(C)C)c1 | 18.1 µM and 21.6 µM |  |  |
| Clc1cc(NCc2ccncc2)nc2[nH]ccc12 | 18.7 µM and 17.4 µM |  |  |
| CCOc1ccc(C(=O)N(CCOC)Cc2c(C)nn(CC)c2C)o1 | > 100 µM |  |  |

| SMILES | IC50 (Histidine--tRNA ligase) | IC50 (Tryptophan--tRNA ligase) [µM] | also measured |
| --- | --- | --- | --- |
| Cn1ccnc1Sc1ccc(N)cn1 | > 100 µM |  |  |
| Cc1nn(-c2ccccn2)c(C)c1[C@@H]1C=C[C@@H](NC(=O)NC(C)C)C1 | > 100 µM and 88 µM |  |  |
| CC(O)CN1CCN(C(=O)c2ccc(Cn3cccn3)cc2)CC1 (configuration not stated) | > 100 µM |  |  |
| c1cc(-c2ccc3c(c2)CCC32CCN(c3nncs3)CC2)co1 | 12.5 µM and 10.1 µM |  |  |
| CN(C)c1ncc(-c2c(-c3ccccc3)ncn2C(CO)C(=O)O)cn1 (configuration not stated) | > 100 µM |  |  |
| CC(=O)NCC(=O)N1Cc2nccn2CC(COc2cccnc2)C1 (configuration not stated) | > 100 µM |  |  |
| CCOc1nnc(CNC2CCCN(c3ccc(C)nn3)C2)s1 (configuration not stated) | > 100 µM and 94.7 µM |  |  |
| Fc1ccc(N2CCC3(CC2)CC(OCc2cccnc2)CO3)cc1 (configuration not stated) | 23.3 µM and 15.8 µM |  |  |
| Cc1ccc(N2CCc3sc(C(=O)N4CCOCC4)cc32)nn1 | > 100 µM |  |  |
| Cc1nnc(SCC(=O)c2cc3c(cc2Cl)NC(=O)C3)o1 | 42.4 µM and 52.8 µM |  |  |
| CCCn1cc(NC(=O)c2cccc3cccnc23)ccc1=O | 40.1 µM and 37.9 µM |  |  |
| Cn1nc2c(cc1=O)CN(CC(=O)Nc1cc(C(C)(C)C)no1)CC2 | > 100 µM |  |  |
| CC(NC(=O)c1coc(COc2cccc(F)c2)n1)c1nnc(N)s1 (configuration not stated) | 98.7 µM and 60.1 µM |  |  |
| CCCn1nc2c(cc1=O)CN(Cc1cc(C)on1)CC2 | 80.7 µM and 80.3 µM |  |  |
| Cc1ccc(NC(=O)Cn2cc(I)cn2)cc1 |  | > 195 | Percent Effect (Schistosoma mansoni): -1.868% |
| Cc1cs/c(=N/C(=O)c2csc(NCC(C)C)n2)[nH]1 | 28.6 µM and 46.9 µM |  |  |
| CC(C)c1nnc(N2C[C@@H]3CC[C@H](C2)N(Cc2ccccc2)C3)s1 | 35.5 µM and 34.5 µM |  |  |
| CC(=O)N(Cc1noc(C)n1)C1CCN(Cc2cccc(C#N)c2)C1 (configuration not stated) | > 100 µM |  |  |
| Cc1c(Cl)cccc1NC(=O)Cn1cc(C(=O)O)ccc1=O | > 100 µM |  |  |
| Cc1ncc2c(n1)CN(Cc1nnc(Cc3ccccc3)o1)CC2 | 48.1 µM and 49.9 µM |  |  |
| COc1cc(CCO)c(OC)c2c1OCO2 | > 100 µM |  |  |

| SMILES | IC50 (Histidine--tRNA ligase) | IC50 (Tryptophan--tRNA ligase) [µM] | also measured |
| --- | --- | --- | --- |
| Cc1cc(C(=O)N2CC[C@@H](N(C)C)[C@@H]2Cc2ccccc2)no1 | > 100 µM |  |  |
| Cc1cc(N2CCC(Cc3ccccc3)CC2)nc(-c2ccncc2)n1 | 25 µM and 18.4 µM |  |  |
| CC(C)NC(=O)C1Cc2nc(-c3ccsc3)sc2N1CC1CC1 (configuration not stated) | 33.6 µM and 37.3 µM |  |  |
| O=C(C1=NN(Cc2ccccc2)c2ccccc2S1(=O)=O)N1CCCC1 | 40.6 µM and 39.5 µM |  |  |
| O=C(NCc1ccco1)[C@@H]1CC[C@@H]2[C@@H](CCN2Cc2ccc(F)cc2)O1 | 59.4 µM and 27.4 µM |  |  |
| COc1ccc(Oc2nccc3occc23)cc1CN1CCCC1 | 66.1 µM and 62.2 µM |  |  |
| O=C(NC1CCCN(c2ccc(OC(F)F)cc2)C1)c1ccon1 (configuration not stated) | > 100 µM |  |  |
| Cc1c(CN2CCCCC2)c(O)n(CCO)c(=O)c1C#N | 34.4 µM and 35.9 µM |  |  |
| CCC1CCc2c(c3ccccc3[nH]c2=O)O1 (configuration not stated) | > 100 µM |  |  |
| NCc1ccnc(Oc2ccccc2)c1 | 39.2 µM and 30.9 µM |  |  |
| NC(=O)NC(=O)CCN1CCN(CC2CC2)c2ccccc21 | > 100 µM |  |  |
| O=C(CCNCc1cccc(O)c1)N1CCc2sccc2C1 | 17.7 µM and 23 µM |  |  |
| CCn1nnc2c1C(COCC(=O)N(C)C)CN(Cc1ccco1)C2 (configuration not stated) | > 100 µM |  |  |
| O=C(CCc1n[nH]c2c1CCCC2)N1C[C@@H]2CC[C@H](C1)N(CC1CC1)C2 | 44.9 µM and 35.8 µM |  |  |
| Cc1cn2nc(N(C)C3CCCN(c4cccnn4)C3)sc2n1 (configuration not stated) | 29.6 µM and 43.5 µM |  |  |
| Nc1cccnc1N1CCCCCC1 | 16.4 µM and 17.4 µM |  |  |
| COCCN1CCCC(C)(c2cc(O)[nH]n2)C1 (configuration not stated) | > 100 µM |  |  |
| O=C(NCCCO)Nc1cccc(Cl)c1F |  | > 195 | Percent Effect (Schistosoma mansoni): 24.34% |
| CC(=O)N1CCN(CC2CCOc3ccccc3C2)CC1 (configuration not stated) |  | > 195 | Percent Effect (Schistosoma mansoni): -45.54% |
| O=C1CC2(CCN(CC3CCOC3)CC2)CN1Cc1cc(F)cc(F)c1 (configuration not stated) |  | > 195 | Percent Effect (Schistosoma mansoni): -23.28% |
| O=C1CN(Cc2nnc(-c3ccccc3Br)o2)CCN1 |  | > 195 | Percent Effect (Schistosoma mansoni): 12.25% |

| SMILES | IC50 (Histidine--tRNA ligase) | IC50 (Tryptophan--tRNA ligase) [µM] | also measured |
| --- | --- | --- | --- |
| CCc1cnc(CN(C(C)=O)C2CCN(CCS(C)(=O)=O)C2)o1 (configuration not stated) |  | > 195 | Percent Effect (Schistosoma mansoni): -22.31% |
| O=C(CCc1ccsc1)NCC1CCN(c2ccccc2)C1 (configuration not stated) |  | > 195 | Percent Effect (Schistosoma mansoni): 6.73% |
| COc1cccc(CNCCc2cc(F)cc3c2OCOC3)c1 |  | > 195 | Percent Effect (Schistosoma mansoni): 75.77% |
| Cc1cc(NC(=O)NCCc2cccs2)n(C)n1 |  | > 195 | Percent Effect (Schistosoma mansoni): 9.063% |
| Cc1ccc(CNC(=O)Nc2cc(C(F)(F)F)c[nH]c2=O)cn1 |  | > 195 | Percent Effect (Schistosoma mansoni): -4.568% |
| Cl.NC(=O)COc1ccc(CNCc2ccc(F)c(F)c2)cc1 |  | > 195 | Percent Effect (Schistosoma mansoni): 13.17% |
| Cc1ccc(CC(=O)N2CCOC(c3nc(C)n[nH]3)C2)cn1 (configuration not stated) |  | > 195 | Percent Effect (Schistosoma mansoni): 13.87% |
| Cn1ccnc1-c1cccc(NC(=O)NCCCO)c1 |  | > 195 | Percent Effect (Schistosoma mansoni): -1.514% |
| O=C1CN(Cc2nnc(-c3ccc(Br)cc3)o2)CCN1 |  | > 195 | Percent Effect (Schistosoma mansoni): -48.54% |
| CN(CCCC#N)C1CCCN(Cc2noc(C3CC3)n2)C1 (configuration not stated) |  | > 195 | Percent Effect (Schistosoma mansoni): -67.8% |
| NC(=O)C1CCN(C(=O)CCn2ccc3cc(Br)ccc32)CC1 |  | > 195 | Percent Effect (Schistosoma mansoni): -11.99% |
| O=C(c1ccc[nH]1)N1CCN(CC2CCOc3ccccc3C2)CC1 (configuration not stated) |  | > 195 | Percent Effect (Schistosoma mansoni): -5.036% |
| O=C(NCCO)Nc1cccc(Cl)c1SC(F)F |  | > 195 | Percent Effect (Schistosoma mansoni): -20.44% |
| CCc1nnc2n1CCN(C(=O)c1ccc3[nH]cnc3c1)C2 |  | > 195 | Percent Effect (Schistosoma mansoni): 19.35% |
| OCCNc1nccc(-c2c[nH]nc2-c2ccco2)n1 |  | > 195 | IC50 [1]: > 50.1 µM |
| Cc1cnn(CC(C)NCc2nc(-c3ccco3)no2)c1 (configuration not stated) |  | > 195 | Percent Effect (Schistosoma mansoni): -25.07% |
| CN(Cc1cnn(C)c1)C(=O)NC1CCC(O)CC1 (configuration not stated) |  | > 195 | Percent Effect (Schistosoma mansoni): 15.72% |
| N#Cc1cccc(SCCS(N)(=O)=O)c1 |  | > 195 | Percent Effect (Schistosoma mansoni): -35.02% |
